Results on six compounds are retold here after US4753938A, “Condensed as-triazine derivatives” (Richter Gedeon Vegyeszeti Gyar Rt., priority 1983, dated 1988).

Series [1] deals with tetrabenazine ptosis on mice. The experiment in a line: Antagonism of tetrabenazine ptosis on mice, p.o. The format is in vivo. Conditions: for ED50: Mus musculus, po, 0.5 h, 50 mg./kg. tetrabenazine i.p. 30 minutes later. How it is done: (§1) (2) Antagonism of Tetrabenazine ptosis on mice and rats, p.o. […] The results are evaluated as follows: on the basis of all the measured data an average ptosis is calculated for each group and the deviation from the average of the control group is expressed in percents (inhibition). The ED50 values are calculated from the data thus obtained.

A short description of series [2]: Acute toxicity on mice, oral (LD50, Litchfield-Wilcoxon, 7 days observation). Particulars: mouse, in vivo. On the procedure:
(1) Acute toxicity on mice
The test is carried out on male and female white mice belonging to the CFLP strain and weighing 18-22 g. The test compound is administered orally and the animals are observed for a period of 7 days. In the groups for each dose half of the animals are male and the other half are female. The animals are kept in a plastic box (39×12×12 cm) on scrapings litter at room temperature. The mice receive standard fodder and tap water ad libitum. The toxicity data are determined by the method of Litchfield-Wilcoxon.
The test compounds are used in a suspension formed with 0.5% carboxymethyl cellulose.

The subject of another series is reserpine ptosis on mice. The experiment in a line: Antagonism of reserpine ptosis on mice, p.o. The format is in vivo. Particulars: for ED50: Mus musculus, po, 1 h, 60 minutes after 6 mg./kg. reserpine s.c. On the procedure: (3) Antagonism of reserpine ptosis on mice, p.o. Animal groups consisting of 10 mice each are treated subcutaneously with 6 mg./kg. of reserpine. The test compound is administered orally after 60 minutes. The animals showing a ptosis are counted after 60 and 120 minutes. The evaluation is carried out as described in connection with the previous ptosis test No. 2.

Series [3] concerns yohimbine toxicity on mice. The experiment in a line: Potentiation of yohimbine toxicity on mice (method of Quinton). The format is in vivo. Particulars: for ED50: Mus musculus, ip, read-out: ED50, potentiation of yohimbine toxicity; for Ther. index, potentiation of yohimbine toxicity: mice. How it is done:
(5) Potentiation of yohimbine toxicity on mice
The tests are carried out according to the method of Quinton. Animal groups consisting of 10 mice each are treated with the test compound. After an hour a sublethal dose of yohimbine is administered intraperitoneally at a rate of 20 ml./kg. The killed animals are counted after 1 and 24 hours, respectively.

For another series, the system named is reserpine ptosis on rats. The series is described as follows: Antagonism of reserpine ptosis on rats, p.o. The format is in vivo. Conditions: Rattus norvegicus, po, 1 h, 60 minutes after 2.5 mg./kg. reserpine s.c. How it is done: (4) Antagonism of reserpine ptosis on rats, p.o. […] The animals showing ptosis are counted until the effect decreases. The evaluation is carried out as described in connection with the previous ptosis test (test 2).

Series [4] relates to aconitine-induced ECG changes in rats. The experiment in a line: Antiarrhythmial effect on rats (aconitine, modified method of Marmo et al.). Conditions: aconitine 75 μg./kg. i.v. The format is in vivo. On the procedure: (6) Antiarrhythmial effect on rats
The test is carried out according to the modified method of Marmo et al. The test animals are narcotized with ethyl urethane (1.2 g./kg. i.p.). Aconitine is administered intravenously in the form of a bolus injection in a dose of 75 μg./kg. The changes of ECG are followed in standard II outlet 5 minutes after the administration of aconitine. The changes observed are evaluated with the aid of a scale from 0 to 5 points. The test compound is administered either intravenously 2 minutes before the addition of aconitine, or orally 1 hour before the aconitine administration.

The subject of series [5] is tetrabenazine ptosis on rats. The experiment in a line: Antagonism of tetrabenazine ptosis on rats, p.o. The format is in vivo. Conditions: Rattus norvegicus, po. On the procedure:
as §1

Series [6] deals with tremorine-induced tremor in mice. The series is described as follows: Antitremorine effect on mice. The format is in vivo. How it is done: (7) Antitremorine effect on mice 20 mg./kg. of tremorine are administered i.p. to mice whereupon after 45 minutes the induced characteristic tremor is registered. The test compounds are administered orally 1 hour before the addition of tremorine.

By ED50 is commonly meant the dose that gives a 50% effect, or the effect in half of the subjects. The LD50 is the dose at which mortality reaches 50%. Read a low LD50 as greater toxicity.

With `OC1(c2ccc(Cl)cc2)[N-]C=N[n+]2ccc3ccccc3c21` (stereo not drawn) [Compound A, 1-(4-chloro-phenyl)-1-hydroxy-as-triazino[6,1-a]isoquinoline-5-ium-2-(1H)-ide], in series [1], the “Ther. index, tetrabenazine ptosis” value was determined as 3667. Moreover, the ED50 came to 0.15 mg/kg in series [1]; 28 mg/kg in the series with reserpine ptosis on mice; 5 mg/kg in series [3]; 28 mg/kg in the series with reserpine ptosis on rats; 7 mg/kg in series [5]. Also, in series [2], the LD50 at 168 h was 550 mg/kg. In the series on reserpine ptosis on mice, the “Ther. index, reserpine ptosis” value turned out to be 19.6. Further, the “Ther. index, potentiation of yohimbine toxicity” value (“Ther. index, potentiation” for short) in series [3] is on record as 110. Further, in series [4] (dose 1 mg./kg.), the “Inhibition, antiarrhythmial effect” value was 39.6%.
`COC1(c2ccc(Cl)cc2)[N-]C=N[n+]2ccc3ccccc3c21` (stereo not drawn) [Compound B, 1-(4-chloro-phenyl)-1-methoxy-as-triazino[6,1-a]isoquinoline-5-ium-2-(1H)-ide]: in series [1], the “Ther. index, tetrabenazine ptosis” value stood at 1680. Moreover, the median effective dose (ED50) in series [1] is 0.25 mg/kg; in series [6] (Mus musculus, po, p.o. 1 hour before tremorine 20 mg./kg. i.p.) it was 40 mg/kg; in the series with reserpine ptosis on mice, 1.5 mg/kg; in series [3], 1.2 mg/kg; in the series on reserpine ptosis on rats it was 34 mg/kg; in series [5], 0.6 mg/kg. The “Ther. index, antitremorine effect” value in series [6] (p.o.) is given as 10.5. The 50% lethal dose (LD50) at 168 h in series [2] was 420 mg/kg. Besides, the “Ther. index, reserpine ptosis” value in the series on reserpine ptosis on mice turned out to be 280.0. The “Ther. index, potentiation” value in series [3] is recorded as 350. Further, in series [4] (dose 1 mg./kg.), the “Inhibition, antiarrhythmial effect” value is on record as 44.3%.
With `CN(C)CCC=C1c2ccccc2CCc2ccccc21` [Amitriptyline, N,N-dimethyl-3-[dibenzo[a,d]-cycloheptadiene-5-ylidene]propylamine, reference compound], the “Ther. index, tetrabenazine ptosis” value in series [1] worked out at 19. Besides, in the series with reserpine ptosis on mice, the “Ther. index, reserpine ptosis” value is on record as 3.45 and the 50% effect level (ED50) was put at a dose of 65 mg/kg. In series [3], the ED50 was found to be 12.5 mg/kg and the “Ther. index, potentiation” value is recorded as 18.
As for `CCN(CC)CC(=O)Nc1c(C)cccc1C` [Lidocain, α-diethylamino-2,6-dimethyl-acetanilide, reference compound], the “Inhibition, antiarrhythmial effect” value in series [4] (dose 4 mg./kg.) came to 23.4%.
In the case of `Clc1ccc(-c2ncn[n+]3ccc4ccccc4c23)cc1` [Reference compound D, 1-(4-chloro-phenyl)-as-triazino[6,1-a]isochinolinium-bromide, reference compound], the “Ther. index, tetrabenazine ptosis” value in series [1] was 188. The “ED50, antitremorine effect” value in series [6] (p.o. 1 hour before tremorine 20 mg./kg. i.p.) is “inactive”. In addition, the “Ther. index, reserpine ptosis” value in the series on reserpine ptosis on mice was “below 5.0”. The ED50 in the series with reserpine ptosis on mice was more than 120 mg/kg; in the series on reserpine ptosis on rats, 60 mg/kg.
On to `O=c1nc(-c2ccc(Cl)cc2)c2c3ccccc3cc[n+]2[n-]1` [Compound C, 1-(4-chloro-phenyl)-as-triazino[6,1-a]isoquinoline-5-ium-2-(1H)-ide-3-one], for which, in series [1], the “Ther. index, tetrabenazine ptosis” value is 87 and it took a dose of 23 mg/kg to reach the 50% effect level (ED50). In series [2] (mice, p.o., 7 days observation), this compound had an LD50 at 168 h of 2000 mg/kg.
